Test results: ChEMBL document CHEMBL1201862, “PubChem BioAssay data set” (2004)
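Five concentrations, 48 hours, 96-well plates. The concentration for 50% growth inhibition is given as GI50.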 Active and inactive are the calls of the source. No stated cut-off is given here; in the data, active = GI50 up to about 1.1 µM and inactive = higher.

How the values were obtained:
Test in all cases: NCI anticancer screen, dose series, 48 h
[1] = system: CAKI-1
[2] = system: COLO 205
[3] = system: EKVX
[4] = system: HOP-92
[5] = system: LOX IMVI
[6] = system: MCF7
[7] = system: MOLT-4
[8] = system: Malme-3M
[9] = system: NCI-H23
[10] = system: NCI/ADR-RES
[11] = system: OVCAR-4
[12] = system: SF-295
[13] = system: SF-539
[14] = system: SK-OV-3
[15] = system: SW-620
[16] = system: T47D
[17] = system: TK-10
[18] = system: U-251
[19] = system: UACC-62
[20] = system: UO-31

## O=C1NC2c3c(I)sc(I)c3C(=O)C2O1 (centres undefined)
[1]
  GI50: 3.52 µM (inactive)
[2]
  GI50: 2.67 µM (inactive)
[3]
  GI50: 5.52 µM (inactive)
[4]
  GI50: 3.38 µM (inactive)
[5]
  GI50: 2.16 µM (inactive)
[6]
  GI50: 4.58 µM (inactive)
[7]
  GI50: 3.58 µM (inactive)
[8]
  GI50: 2.23 µM (inactive)
[9]
  GI50: 5.27 µM (inactive)
[10]
  GI50: 6.84 µM (inactive)
[11]
  GI50: 9.35 µM (inactive)
[12]
  GI50: 15.8 µM (inactive)
[13]
  GI50: 2.56 µM (inactive)
[14]
  GI50: 17.3 µM (inactive)
[15]
  GI50: 2.82 µM (inactive)
[16]
  GI50: 15.9 µM (inactive)
[17]
  GI50: 10.9 µM (inactive)
[18]
  GI50: 6.78 µM (inactive)
[19]
  GI50: 8.99 µM (inactive)
[20]
  GI50: 3.82 µM (inactive)

## Cc1ccc(S(=O)(=O)N2CCSCCSCCSCCSCC2)cc1
[1]
  GI50: 22.4 µM (inactive)
[2]
  GI50: > 100 µM (inactive)
[3]
  GI50: 48.5 µM (inactive)
[4]
  GI50: 12.3 µM (inactive)
[5]
  GI50: 59.6 µM (inactive)
[6]
  GI50: > 72.9 µM (inactive)
[7]
  GI50: > 82.2 µM (inactive)
[8]
  GI50: > 72.8 µM (inactive)
[9]
  GI50: 40.1 µM (inactive)
[10]
  GI50: 32 µM (inactive)
[11]
  GI50: 27.8 µM (inactive)
[12]
  GI50: 22.6 µM (inactive)
[13]
  GI50: 26.9 µM (inactive)
[14]
  GI50: 19.1 µM (inactive)
[15]
  GI50: > 100 µM (inactive)
[16]
  GI50: 36.3 µM (inactive)
[17]
  GI50: 44.6 µM (inactive)
[18]
  GI50: 18.4 µM (inactive)
[19]
  GI50: 17.1 µM (inactive)
[20]
  GI50: 50.2 µM (inactive)

## C1=CC2=CC=CC3c4nc5ccc6ccccc6c5nc4C(=C1)C23 (centres undefined)
[1]
  GI50: > 100 µM (inactive)
[2]
  GI50: > 100 µM (inactive)
[3]
  GI50: > 100 µM (inactive)
[4]
  GI50: > 100 µM (inactive)
[5]
  GI50: > 100 µM (inactive)
[6]
  GI50: > 100 µM (inactive)
[7]
  GI50: > 100 µM (inactive)
[8]
  GI50: > 100 µM (inactive)
[9]
  GI50: > 100 µM (inactive)
[10]
  GI50: > 100 µM (inactive)
[11]
  GI50: > 100 µM (inactive)
[12]
  GI50: > 100 µM (inactive)
[13]
  GI50: > 100 µM (inactive)
[14]
  GI50: > 100 µM (inactive)
[15]
  GI50: > 100 µM (inactive)
[16]
  GI50: > 100 µM (inactive)
[17]
  GI50: > 100 µM (inactive)
[18]
  GI50: > 100 µM (inactive)
[19]
  GI50: > 100 µM (inactive)
[20]
  GI50: > 100 µM (inactive)

## COC1/C=C/C(C)C(OC)CC(O)/C=C/C(C)C(C(C)C(OC)C(C)CCC(=O)C(C)C(C/C=C/N(C)C=O)OC)OC(=O)/C=C/C=C(\C)CC(OC)CC2=CC(=O)O[C@@H](C(C)C(OC)C1)[C@H]2O (some centres undefined)
[1]
  GI50: 0.0332 µM (active)
[2]
  GI50: 0.0301 µM (active)
[3]
  GI50: 0.386 µM (active)
[4]
  GI50: 0.0634 µM (active)
[5]
  GI50: 0.0223 µM (active)
[6]
  GI50: 0.0982 µM (active)
[7]
  GI50: 0.214 µM (active)
[8]
  GI50: 0.069 µM (active)
[9]
  GI50: 0.26 µM (active)
[10]
  GI50: 0.195 µM (active)
[11]
  GI50: 0.12 µM (active)
[12]
  GI50: 0.11 µM (active)
[13]
  GI50: 0.114 µM (active)
[14]
  GI50: 0.151 µM (active)
[15]
  GI50: 0.0664 µM (active)
[16]
  GI50: 0.912 µM (active)
[17]
  GI50: 0.29 µM (active)
[18]
  GI50: 0.0706 µM (active)
[19]
  GI50: 0.148 µM (active)
[20]
  GI50: 0.0998 µM (active)

## O=C(O)C1C(C(=O)O)C23CC2(C(=O)O)C2(C(=O)O)CCC3=C3CCCC312 (centres undefined)
[1]
  GI50: 20.2 µM (inactive)
[2]
  GI50: 3.81 µM (inactive)
[3]
  GI50: 11.6 µM (inactive)
[4]
  GI50: 8.3 µM (inactive)
[5]
  GI50: 10.6 µM (inactive)
[6]
  GI50: 11.7 µM (inactive)
[7]
  GI50: 4.99 µM (inactive)
[8]
  GI50: 4.21 µM (inactive)
[9]
  GI50: 7.96 µM (inactive)
[10]
  GI50: 20.7 µM (inactive)
[11]
  GI50: 16 µM (inactive)
[12]
  GI50: 4.13 µM (inactive)
[13]
  GI50: 4.67 µM (inactive)
[14]
  GI50: 3.89 µM (inactive)
[15]
  GI50: 6.34 µM (inactive)
[16]
  GI50: 11.8 µM (inactive)
[17]
  GI50: 11.1 µM (inactive)
[18]
  GI50: 5.97 µM (inactive)
[19]
  GI50: 10.5 µM (inactive)
[20]
  GI50: 8.97 µM (inactive)

## N#CC(=C1CCN(CCCC(=O)c2ccc(F)cc2)CC1)c1ccccc1
[1]
  GI50: > 100 µM (inactive)
[2]
  GI50: > 100 µM (inactive)
[3]
  GI50: > 100 µM (inactive)
[4]
  GI50: > 100 µM (inactive)
[5]
  GI50: > 100 µM (inactive)
[6]
  GI50: > 100 µM (inactive)
[7]
  GI50: > 100 µM (inactive)
[8]
  GI50: > 100 µM (inactive)
[9]
  GI50: > 100 µM (inactive)
[10]
  GI50: > 100 µM (inactive)
[11]
  GI50: > 100 µM (inactive)
[12]
  GI50: > 100 µM (inactive)
[13]
  GI50: > 100 µM (inactive)
[14]
  GI50: > 100 µM (inactive)
[15]
  GI50: > 100 µM (inactive)
[16]
  GI50: > 100 µM (inactive)
[17]
  GI50: > 100 µM (inactive)
[18]
  GI50: > 100 µM (inactive)
[19]
  GI50: > 100 µM (inactive)
[20]
  GI50: > 100 µM (inactive)

## COc1cc(C)c(/C=C2/N=C(c3ccccc3)OC2=O)c([N+](=O)[O-])c1OC
[1]
  GI50: > 100 µM (inactive)
[2]
  GI50: > 100 µM (inactive)
[3]
  GI50: > 100 µM (inactive)
[4]
  GI50: 37.4 µM (inactive)
[5]
  GI50: > 100 µM (inactive)
[6]
  GI50: > 100 µM (inactive)
[7]
  GI50: > 100 µM (inactive)
[8]
  GI50: > 100 µM (inactive)
[9]
  GI50: > 100 µM (inactive)
[10]
  GI50: > 100 µM (inactive)
[11]
  GI50: > 100 µM (inactive)
[12]
  GI50: > 100 µM (inactive)
[13]
  GI50: > 100 µM (inactive)
[14]
  GI50: > 100 µM (inactive)
[15]
  GI50: > 100 µM (inactive)
[16]
  GI50: > 100 µM (inactive)
[17]
  GI50: > 100 µM (inactive)
[18]
  GI50: > 100 µM (inactive)
[19]
  GI50: > 100 µM (inactive)
